Results on 7 compounds are retold here after patent publication US20240093184A1, “CHEMICALLY REVERSIBLE 2`-OH ACYLATION PROTECTS RNA FROM HYDROLYTIC AND ENZYMATIC DEGRADATION” (The Board of Trustees of the Leland Stanford Junior …, priority 2022, published 2024).

The subject of data set [1] is EMX1-sgRNA. Nature of the data set: In vitro DNA cleavage function of CRISPR sgRNA. The data set is classed as biochemical. The conditions noted are these: Tris for DMG-cloaked sgRNA, DABCO for alkoxy acylimidazole-cloaked sgRNA; neutral pH, 11 hours.
For data set [2], the system named is eGFP-mRNA. Kind of data set: Accelerated RNA aging of cloaked eGFP-mRNA in RNase-free water at 37° C., capillary electrophoresis. The data set is classed as physicochemical. The conditions noted are these: for resistance of cloaked eGFP-mRNA to thermal degradation: equivalently cloaked (˜50% of unpaired accessible 2′-OH); for extension of lifespan of eGFP-mRNA: extensive cloaking (>90% of accessible 2′-hydroxyls). On the procedure: (§1) In this example, the capacity to use this RNA cloaking strategy to stabilize RNA in solution was assessed with accelerated RNA aging experiments by incubating eGFP-mRNA species with or without cloaking with NAIN3 ((2-(azidomethyl)pyridin-3-yl)(1H-imidazol-1-yl)methanone) in RNase-free water at a mildly elevated temperature (37° C.) (FIG. 1). We then evaluated the lifespan of the mRNA by measuring the relative fraction of remaining fully intact RNA over time. […] Acylation-induced stabilization was further tested on a second, longer mRNA. […] No depurination of adenosine and […] was observed during the span of degradation experiments (FIG. 2). See, for example, FIG. 1.
(§2) We screened these acylimidazole reagents for modulation of RNA thermal degradation by performing accelerated RNA aging experiments with eGFP-mRNA aliquots that were equivalently cloaked (˜50% of unpaired accessible 2′-OH). Representative CE data are shown in FIG. 1 for cloaked eGFP-mRNA, which resisted thermal degradation across broad substituent types. […] Noting subtle differences in the stabilization, we hypothesized that the varying protection afforded by the reagents might arise from differential hydrolytic stability of their adducts; this was later confirmed (see below). […] To compensate for this, more extensive cloaking by N,N-dimethylglycine (DMG) acylimidazole (>90% of unpaired accessible 2″-OH) extended the lifespan of eGFP-m RNA by ˜5-fold.

The subject of data set [3] is EMX1-sgRNA. Nature of the data set: Storage of cloaked EMX1-sgRNA in frozen RNase-free water (−80° C.). In kind it is physicochemical. The conditions noted are these: 9 months. On the procedure: FIG. 4. Integrity of cloaked EMX1-sgRNA (105 nt) upon incubation in frozen RNase-free water after 9 months (−80° C.).
as §2

The next data set relates to 18nt model RNA. Kind of data set: Nucleophile screen for removal (uncloaking) of 2′-acyl adducts. The conditions noted are these: for reversibility of acyl adducts by nucleophiles: 37° C., neutral pH. In kind it is physicochemical. From the text:
Nucleophiles are known to catalyze ester hydrolysis; examples include the use of imidazole and pyridine as nucleophilic catalysts. To restore biological activity of RNAs after cloaking-based stabilization, we tested uncloaking strategies to promote rapid hydrolysis of 2′-carboxyl esters with weakly basic nucleophiles (FIG. 5). […] In the library design, we avoided the use of strong Bronsted bases to prevent hydrolytic RNA backbone cleavage. Nucleophiles were screened against the 18nt model RNA containing acyl groups of each type at 37° C. and neutral pH, which identified at least 9 sensitive acylation-nucleophile pairs that promoted >50% removal of adducts within 2 hours. […] Other adducts can also be rapidly removed with designated nucleophiles, with half-lives for reversal ranging from 1.1 to 1.8 hours.
For 2′-acyl adduct by DMG, the effects of the biocompatible tris(hydroxymethyl) aminomethane (Tris) buffer alone were substantial, consistent with previous reports that Tris can hydrolyze active esters.

Data set [4] deals with eGFP-mRNA. Nature of the data set: In vitro translation assay of cloaked and uncloaked eGFP-mRNA. The data set is classed as biochemical. The text has this: introduced into the coding region of mRNAs. Thus, we investigated whether Tris could restore the translation of a model eGFP-mRNA densely cloaked (50%) by DMG acylimidazole. […] To explore the generality of this observation, we applied the methods to an in vitro transcribed CRISPR sgRNA. Acylation of EMX1-sgRNA by other reagents blocked its cleavage function (<10%) in vitro.

A further data set deals with RNase A. Nature of the data set: Nucleolytic degradation of cloaked eGFP-mRNA by RNase A. The data set is classed as biochemical. From the text: (§3) In this example, we systemically surveyed protective effects of cloaking with representative RNases and biofluids, recapitulating the common enzymatic conditions RNAs encounter during storage, handling, and application (FIG. 7). […] We next evaluated whether cloaking could ameliorate mRNA degradation in fetal bovine serum (FBS), a frequent component of eukaryotic cell culture (FIG. 8). […] This is likely due in part to DMG acylimidazole retaining RNA secondary structures and helicity for maximum resistance to RNases. Acylating reagents also protect eGFP-mRNA against FBS to varying degrees. […] Thus, 2′-acylation provides context-dependent protection of long RNA (e.g., mRNA) against ribonucleolytic enzymes. Reagent DMG acylimidazole effectively shields mRNA against a broad range of RNases.

Another data set deals with RNase T1. Kind of data set: Nucleolytic degradation of cloaked eGFP-mRNA by RNase T1. In kind it is biochemical.
Text: as §3

Data set [5] in a line: Serum stability of cloaked EMX1-sgRNA. In kind it is in vitro ADME. The conditions noted are these: 105nt sgRNA. The text has this:
(§4) In this example, we systematically characterized how acylimidazoles affect enzymatic degradation of EMX1-sgRNA in serum, a 105nt single guide RNA (sgRNA) for CRISPR-Cas9 gene editing (FIG. 7). […] Among all reagents, DMG acylimidazole enhanced sgRNA stability the most, by up to 14-fold. […] Although such protection most likely extends to other RNAs, the secondary structures of RNA may influence the magnitude of enhancement in enzymatic stability. […] This is likely due in part to different RNA motifs having distinct “hotspots” for enzymatic degradation, which may not be completely shielded by cloaking. Taken together, 2′-acylation effectively enhances the serum stability of RNA, the magnitude of which may be influenced by the length and structure of the underlying RNA.

Data set [6] is described as follows: Serum stability of cloaked RNA motifs. The data set is classed as in vitro ADME.
Text: as §4

For a further data set, the system named is SW480. Kind of data set: Translation of cloaked eGFP-mRNA in SW480 cells. In kind it is cell-based, human.
Another data set relates to HEK293. Nature of the data set: Translation of cloaked eGFP-mRNA in HEK293 cells. In kind it is cell-based, human.
Data set [7] deals with HeLa cells. Kind of data set: Translation of cloaked d2GFP-mRNA in HeLa cells. In kind it is cell-based, human. On the procedure: We therefore adopted a reporter system employing mRNA encoding a destabilized green fluorescent protein d2GFP, where both mRNA and protein degradation occur with similar half-lives of ˜2-3 hours. We observed that the translation of unprotected d2GFP-mRNA quickly descended after peaking. […] Taken together, RNA cloaking by DMG derivative DMG acylimidazole effectively extended d2GFP-mRNA functional lifespan and translation, providing insights for the potential use of reversible 2′-acylation as a modulator of mRNA translation kinetics.

The subject of a further data set is Fluc-mRNA. Kind of data set: Accelerated RNA aging of cloaked Fluc-mRNA in water at 37° C. The data set is classed as physicochemical. The conditions noted are these: extensive cloaking (>90% of unpaired 2′-hydroxyls), six days in water. On the procedure:
as §1

The subject of data set [8] is HeLa cells. Kind of data set: Translation of cloaked eGFP-mRNA in transfected HeLa cells (flow cytometry, fluorescence imaging). The conditions noted are these: intermediately cloaked, over two days. In kind it is cell-based, human. From the text:
Intact cells maintain high intracellular concentrations of nucleophilic species such as cysteine and glutathione. […] In this example, we employed cloaked mRNAs encoding fluorescent reporter proteins. Indeed, we observed the emergence of strong green fluorescence signals by flow cytometry over a period of two days in HeLa cells transfected with intermediately DMG-cloaked eGFP-mRNA. […] Moreover, the delayed translation of cloaked mRNAs reflects an initial uncloaking step, which when occurring over time may provide slow-release translation kinetics—reducing an early expression peak and extending the duration of translation (see below). Finally, we also observed that translation of eGFP-mRNA with alkoxyl acyl adduct can also be restored in cells, highlighting possible control over mRNA release kinetics by modification of the acyl group.
Background: Flow cytometry measures light scatter and fluorescence of single cells or particles in a stream.

Data set [9] relates to mRNAs (TBP, PPIE, and PSMB6). The conditions noted are these: HEK293 total RNA cloaked with DMG acylimidazole; Tris alone, neutral pH, 24 h. On the procedure: For instance, the ability of a single 2′-acylation to halt reverse transcriptase during primer extension necessitates efficient 2′-deacylation to avoid premature reverse transcription termination. […] We isolated and cloaked total cellular RNA from HEK293 cells with DMG acylimidazole, and recovery efficiency was evaluated for three representative mRNAs by the reverse transcription efficiencies. […] Recent experiments have shown that local 2′-acylation can terminate translation when

Take `C1CN2CCN1CC2` [DABCO, 1,4-diazabicyclo[2.2.2]octane]: the “restoration of DNA cleavage of cloaked sgRNA” value in the data set with EMX1-sgRNA [1] is “fully restored DNA cleavage”.
Turning to `CN(C)CC(=O)n1ccnc1` [DMG acylimidazole, N,N-dimethylglycine (DMG) acylimidazole], the “resistance of cloaked eGFP-mRNA to thermal degradation” value (“resistance of cloaked eGFP-mRNA” below) in the data set on eGFP-mRNA [2] is recorded as “slightly reduced enhancement of RNA thermal stability”. Moreover, the “extension of lifespan of eGFP-mRNA” value with eGFP-mRNA [2] (RNase-free water, 37° C.) is roughly 5 fold. Further, the “stability of in vitro transcribed EMX1-sgRNA on storage” value in the data set on EMX1-sgRNA [3] was “enhanced stability”. In addition, the “reversal of 2′-acyl adduct by Tris buffer alone” value in the data set with 18nt model RNA is recorded as “substantial”. The “translation of cloaked eGFP-mRNA in vitro” value with eGFP-mRNA [4] (eGFP-mRNA densely cloaked (50%)) is recorded as “strongly blocked the translation”. The “protection of eGFP-mRNA from nucleolytic degradation by RNase A” value in the data set on RNase A is listed as “effectively shielded”. Also, in the data set on RNase T1, the “protection of eGFP-mRNA from nucleolytic degradation by RNase T1” value is on record as “effectively shielded”. In addition, the “increase in serum stability of EMX1-sgRNA” value in data set [5] is “up to 14 fold”. Also, the “serum stability of a bulge loop RNA motif” value in [6] (bulge loop) is listed as “increases the serum stability”. Also, the “serum stability of an internal loop motif” value in data set [6] (internal loop) is “minimal enhancement”. In addition, the “serum stability of a structurally complex pseudoknot” value in [6] (pseudoknot) is listed as “increases the serum stability”. Moreover, the “recovery of eGFP expression” value in the data set on SW480 and with HEK293 was “confirmed generality” in each case. Also, the “enhancement of total protein output of d2GFP-mRNA” value in the data set with HeLa cells [7] (HeLa cells, versus unprotected d2GFP-mRNA) amounted to 31%. The “duration of sustained d2GFP-mRNA translation at its peak level” value in the data set with HeLa cells [7] (intermediate cloaking, HeLa) was roughly 10 h.
On to `[N-]=[N+]=NCc1ncccc1C(=O)n1ccnc1` [NAIN3, (2-(azidomethyl)pyridin-3-yl)(1H-imidazol-1-yl)methanone, reference compound], for which the “extension of lifespan of eGFP-mRNA” value with eGFP-mRNA [2] (RNase-free water, 37° C.) is recorded as -7 fold. In addition, the “extension of lifespan of intact eGFP-mRNA” value in the data set with eGFP-mRNA [2] (intermediate cloaking (˜50% of unpaired 2′-hydroxyls), RNase-free water, 37° C.) is given as -3 fold. For the same compound, in the data set with eGFP-mRNA [2] (within the timespan of the aging experiment), the “damage to the nucleobases (deamination of adenine and cytosine)” value was “No damage to the nucleobases”. The “backbone cleavage of Fluc-mRNA” value in the data set with Fluc-mRNA is reported as “almost completely blocked backbone cleavage”. For the same compound, the “reversibility of acyl adducts by nucleophiles” value (“reversibility of acyl adducts” for short) in the data set with 18nt model RNA was “can be reversed via Staudinger reaction”. In addition, the “translation of cloaked eGFP-mRNA in cells” value in the data set with HeLa cells [8] is “translation remained strongly inhibited”.
Turning to `CC(=O)n1ccnc1` [acetylimidazole], the “resistance of cloaked eGFP-mRNA” value with eGFP-mRNA [2] is recorded as “attenuated RNA hydrolysis”. For the same compound, in the data set with 18nt model RNA, the “reversibility of acyl adducts” value is “relatively resistant to reversal by nonbasic nucleophiles” and the “reversal of 2′-acyl adduct by Tris buffer alone” value is recorded as “not reversed by Tris”.
Consider `CCOCC(=O)n1ccnc1` [ethoxyacetyl compound], for which the “resistance of cloaked eGFP-mRNA” value with eGFP-mRNA [2] was “providing the most stability”.
`O=C(c1cccnc1)n1ccnc1` [nicotinic acid acylimidazole]: the “reversibility of acyl adducts” value in the data set with 18nt model RNA is on record as “relatively resistant to reversal by nonbasic nucleophiles”.
In the case of tris(hydroxymethyl)aminomethane, the “recovery of reverse transcription of cloaked mRNAs” value in data set [9] was “reinstated the reverse transcription”. For the same compound, the “restoration of eGFP expression” value with eGFP-mRNA [4] (DMG acylimidazole-cloaked eGFP-mRNA, Tris, pH=7.5 at 37° C.) is “up to 87%”. For the same compound, the “restoration of DNA cleavage of cloaked sgRNA” value in the data set with EMX1-sgRNA [1] is on record as “fully restored DNA cleavage”.
